In patent publication US20120196766A1, “Therapeutic Use of Farnesyltransferase Inhibitors and Methods of Monitoring the Efficacy Thereof” (priority 2004, published 2012):

Tests used:
BALB/c mice = assay: LPS-induced cytokine production in vivo (murine model of LPS-induced inflammation); details: Mus musculus; 50 mg/kg oral before LPS; 2 hours, first experiment; read-out: inhibition of MIP-1α production
Description: The experiments were performed on female BALB/c mice (6-7 week old; Charles River Laboratories, Inc. MA). […] The control mice received the vehicle (20% cyclodextran) only. 20 μg LPS (Sigma), diluted in PBS, was injected into each mouse intraperitoneally. Blood samples were collected either by eye bleeding or cardiac puncture at 1 and 2 hours after LPS injection in one experiment, and at 2 and 3 hours after LPS injection in a second experiment. Plasma samples were collected by centrifugation, and stored at ≦−20° C. before being tested for cytokines using individual ELISA kits or Luminex analysis (see below).
(§1) Human IL-6, IL18, IL1β, MCP-1, MMP-9, and mouse IL-6, IL18, TNFα, MCP-1 and IL-1β were measured with ELISA kits (R&D Systems) according to the manufacturer's instructions.
Samples were tested for cytokines using the Bio-plex cytokine assay kit (Bio-Rad Laboratories, Inc.) according to the manufacturer's instructions. Briefly, 50 μL anti-cytokine antibody conjugated beads were added to wells of a filter plate pre-equilibrated with assay buffer. The beads were washed, then 50 μL of undiluted cell culture supernatant or 4-fold diluted plasma samples were added and incubated for 2 hours. Biotinylated anti-cytokine antibody (25 μL) was added to each well and the plate was incubated with shaking for 1.5 hours. Streptavidin-PE (50 μL) was added to each well and the plate was incubated with shaking for 45 min. between incubations, wells were washed 3 times with 100 μL wash buffer and unbound analytes were filtered using a vacuum manifold. Following the last wash step, 125 μL of assay buffer was added to each well and the plate was placed on a shaker for 10 min. The plate was read on a Luminex^100 instrument (Luminex Corporation, Austin, Tex.) according to the manufacturer's instructions. The concentration of cytokine was determined from a standard curve assayed at the same time.

farnesyltransferase = farnesyltransferase (Homo sapiens, UniProt P49354+P49356); details: cited from earlier work
human PBMC = assay: LPS-induced cytokine production in human PBMC; assay type: cell-based; details: 2 or 5 μM, LPS 10 ng/ml, 10% FBS
Description: as §1
Heparinized human blood (25 ml) from a healthy donor was overlaid into a 50 ml conical tubes containing 20 ml Ficoll-Paque, and centrifuged for 20 min at 2000 rpm at room temperature and then allowed to stop without using the brake on the centrifuge. The upper layer was aspirated, leaving the mononuclear cell layer undisturbed at the interface. Cells were carefully transferred the to a new […] conical tube. The conical tube was filled with PBS, mixed and centrifuged at 1500 rpm for 15 minutes at room temperature. The supernatant was carefully and completely removed. The cell pellet was resupended in 50 ml of PBS and centrifuged at 1500 rpm for 5 minutes. This wash step was repeated once more. The cells were counted and resuspended cells at 1.7×10^6/ml in low-endotoxin RPMI1640/10% FBS.
Human PBMC (180 μl at 1.7×10^6/ml) were pipetted into each well of a 96-well plate. […] Cells were incubated at 37° C., under 5% CO2 for 1 hour, then 10 μl LPS (diluted in medium) were added per well to reach a final concentration of 10 ng/ml. Cells were cultured at 37° C., under 5% CO2. Supernatants were collected at 16 hours, 24 hours and 40 hours of LPS treatment, and IL-6 secretion was quantified.

NF-κB = details: cited from earlier work

CCC(C)(C)C(=O)O[C@H]1C[C@@H](C)C=C2C=C[C@H](C)[C@H](CC[C@@H]3C[C@@H](O)CC(=O)O3)[C@H]21 [simvastatin]
inhibition at 50 mg/kg (BALB/c mice): ~50%

Cn1cncc1C(N)(c1ccc(Cl)cc1)c1ccc2c(c1)c(-c1cccc(Cl)c1)cc(=O)n2C (single isomer, unassigned) [less active enantiomer]
fold less active than tipifarnib (R115777) for inhibition of farnesyltransferase (farnesyltransferase): about 100 fold | LPS-induced IL-6 production (human PBMC): No difference in production

NC(=O)N1CCC(CC(=O)N2CCC([C@H]3c4ncc(Br)cc4CCc4cc(Cl)cc(Br)c43)CC2)CC1 [SCH 66336, (+)-(R)-4-[2-[4-(3,10-dibromo-8-chloro-5,6-dihydro-11H-benzo[5,6]cyclohepta[1,2-b]pyridin-11-yl)piperidin-1-yl]-2-oxoethyl]piperidine-1-carboxamide]
TNF-α induced NF-κB activity (NF-κB): inhibited
